# Experimental data from patent US11179501B2, “Bone morphogenetic protein pathway activation, compositions for ossification, and methods related thereto” (Emory University, priority 2011, dated 2021).
# Counter-ions that a name gives are not always drawn.
# Experiments:
# C2C12 cells [1] = experiment: BMP-Noggin competitive alkaline phosphatase (ALP) assay; format: cell-based, Mouse; details: for cell lifting from culture plates: BMP-Noggin competitive ALP assay, low cell number and low yield of protein; for Fold increase in Noggin-Inhibition ALP Assay over BMP alone control: BMP-2 90-100 ng/ml plus noggin 100-120 ng/ml, 72 hours
# Procedure: (§1) Their activity was evaluated by determining the potentiation of alkaline phosphatase activity in sub-optimal doses of BMP in the presence or absence of exogenously added noggin.
# Mouse C2C12 cells and Dulbecco's modified Eagle's medium (DMEM) were purchased from ATCC (Manassas, Va.). The non-heat inactivated fetal bovine serum (FBS) was purchased from HyClone Laboratories, Inc. (Logan, Utah). The C2C12 cells at passages 5 to 10 were subcultured in T-75 cm^2 flasks in DMEM supplemented with 10% FBS at 37° C. in 5% CO2 with humidification. When the flasks reached 80% confluence, the cells were trypsinized and seeded in triplicate.
# The C2C12 cells were plated at 200,000 cells/well in 6-well plates and grown overnight in DMEM containing 10% FBS. On day 2, the culture medium was replaced with DMEM containing 2% FBS and the cells were treated with 90-100 ng/ml of BMP-2 (as noted in each experiment), various concentrations of compound, and 100-120 ng/ml of noggin (as noted in each experiment) for 72 hours. The cells were washed with phosphate-buffered saline (PBS) and lysed by addition of lysis buffer (10 mM Tris-HCl pH 8.0, 1 mM MgCl2 and 1.0% Triton X-100). The cell lysates were centrifuged for 5 minutes at 13,000×g. The supernatant was removed and the aliquots were assayed for ALP activity and protein amount. The ALP activity was measured in triplicate using an ALP assay kit (Sigma-Aldrich, St. Louis, Mo.) in microtiter plates. The protein amount was determined with Bio-Rad protein assay reagent (Bio-Rad, Hercules, Calif.) using bovine serum albumin (BSA) as a standard. The ALP activity (nmoles of p-nitrophenol per ml) was normalized to the protein amount (nmoles of p-nitrophenol per μg).
# C2C12 cells [2] = experiment: Alkaline phosphatase (ALP) assay: potentiation of BMP-2-induced ALP activity; details: for Fold increase in BMP-Potentiated ALP activity over BMP control / cell lifting from culture plates / Fold-increase of BMP-induced ALP (over BMP alone control): C2C12 cells; for Fold increase in BMP-Potentiated ALP activity over BMP control: 50 ng/ml BMP-2, 72 hours; for cell lifting from culture plates: ALP assay
# Procedure: as §1
# The BMP-potentiating activities of compounds may be evaluated by monitoring several markers of the osteoblastic phenotype corresponding to various time points during phenotype differentiation of C2C12 cells towards terminally differentiated osteoblasts.
# The C2C12 cells at passages 5 to 10 were subcultured in T-75 cm^2 flasks in DMEM supplemented with 10% FBS at 37° C. in 5% CO2 with humidification. When the flasks reached 80% confluence, the cells were trypsinized and seeded in triplicate.
# The C2C12 cells were plated at 200,000 cells/well in 6-well plates and grown overnight in DMEM containing 10% FBS. On day 2, the culture medium was replaced with DMEM containing 2% FBS and the cells were treated with various concentrations of compound for 24 hours. On day 3, the culture medium was replaced with DMEM containing 2% FBS and the cells were treated with 50 ng/ml of BMP-2 and various concentrations of compound for 72 hours. The cells were washed with phosphate-buffered saline (PBS) and lysed by addition of lysis buffer (10 mM Tris-HCl pH 8.0, 1 mM MgCl2 and 1.0% Triton X-100). The cell lysates were centrifuged for 5 minutes at 13,000×g. The supernatant was removed and the aliquots were assayed for ALP activity and protein amount. The ALP activity was measured in triplicate using an ALP assay kit (Sigma-Aldrich, St. Louis, Mo.) in microtiter plates. The protein amount was determined with Bio-Rad protein assay reagent (Bio-Rad, Hercules, Calif.) using bovine serum albumin (BSA) as a standard. The ALP activity (nmoles of p-nitrophenol per ml) was normalized to the protein amount (nmoles of p-nitrophenol per μg).
# Sprague Dawley rats = experiment: Collagen disc implantation with macrolides in rat ectopic model; format: in vivo; set-up: Ave. (Xray score): scale not given here; details: for Ave. (Xray score) / Results (bone, animals with bone of 4): 100 ul, collagen, no BMP-2, 4 weeks; for De novo bone formation: local, collagen disc, chest implant, absence of BMP-2, 4 weeks
# Text: Sprague Dawley rats about 5-6 weeks of age were chest implanted with a collagen disc (diameter of 1.0 cm and height of 2.0 mm; total volume of 150 cubic millimeters) and doses of macrolides in the absence of BMP-2. After 4 weeks the rats were sacrificed and evaluated for bone growth. […] In certain embodiments, the disclosure contemplates local bone formation for fracture repair, segmental bone defects, spine fusion, bone grafting, and regional bone enhancement for osteopenic bones before they fracture (e.g. hip, vertebral body, etc) by deliver locally to induce local bone formation.
compound,measurement,setting,value
"COc1cc(CNC(=O)CCCCC=CC(C)C)ccc1O [Capsaicin, N-(4-hydroxy-3-methoxybenzyl)-8-methylnon-6-enamide]",cell lifting from culture plates,C2C12 cells [1],caused cell lifting from culture plates
"Clc1ccc(CON=C(Cn2ccnc2)c2ccc(Cl)cc2Cl)c(Cl)c1 [oxiconazole nitrate, 1-(2,4-dichlorophenyl)-2-(1H-imidazol-1-yl)ethanone O-(2,4-dichlorobenzyl) oxime]",cell lifting from culture plates,C2C12 cells [1],caused cell lifting from culture plates
"CC[C@H](C)C(=O)O[C@H]1C[C@@H](C)C=C2C=C[C@H](C)[C@H](CC[C@@H]3C[C@@H](O)CC(=O)O3)[C@H]21 [Lovastatin, lovastatin]",cell lifting from culture plates,C2C12 cells [1],caused cell lifting from culture plates
"CC(=O)N1CCN(c2ccc(OC[C@H]3CO[C@](Cn4ccnc4)(c4ccc(Cl)cc4Cl)O3)cc2)CC1 [Ketoconazole, 1-(4-(4-(((2R,4S)-2-((1H-imidazol-1-yl)methyl)-2-(2,4-dichlorophenyl)-1,3-dioxolan-4-yl)methoxy)phenyl)piperazin-1-yl)ethanone]",cell lifting from culture plates,C2C12 cells [1],caused cell lifting from culture plates
"C=CCc1ccc(O)c(-c2ccc(O)c(CC=C)c2)c1 [Honokiol, 3′,5-di-2-propen-1-yl-[1,1′-biphenyl]-2,4′-diol]",Fold increase in BMP-Potentiated ALP activity over BMP control,C2C12 cells [2],5
same,Fold increase in Noggin-Inhibition ALP Assay over BMP alone control,C2C12 cells [1],16
"CO[C@H]1C[C@@H]2CC[C@@H](C)[C@@](O)(O2)C(=O)C(=O)N2CCCC[C@H]2C(=O)O[C@H]([C@H](C)C[C@@H]2CC[C@@H](OCCO)[C@H](OC)C2)CC(=O)[C@H](C)/C=C(\C)[C@@H](O)[C@@H](OC)C(=O)[C@H](C)C[C@H](C)/C=C/C=C/C=C/1C [Everolimus, everolimus]",Ave. (Xray score),Sprague Dawley rats; dose 10 mM,0
same,"Results (bone, animals with bone of 4)",Sprague Dawley rats; dose 10 mM,No bone (0 of 4)
same,Ave. (Xray score),Sprague Dawley rats; dose 15 mM,2.5
same,"Results (bone, animals with bone of 4)",Sprague Dawley rats; dose 15 mM,Bone (3 of 4)
same,Ave. (Xray score),Sprague Dawley rats; dose 20 mM,3.75
same,"Results (bone, animals with bone of 4)",Sprague Dawley rats; dose 20 mM,Bone (4 of 4)
same,Ave. (Xray score),Sprague Dawley rats; dose 25 mM,4.75
same,"Results (bone, animals with bone of 4)",Sprague Dawley rats; dose 25 mM,Bone (4 of 4)
same,Ave. (Xray score),Sprague Dawley rats; dose 30 mM,3.75
same,"Results (bone, animals with bone of 4)",Sprague Dawley rats; dose 30 mM,Bone (3 of 4)
same,Ave. (Xray score),Sprague Dawley rats; dose 35 mM,4.75
same,"Results (bone, animals with bone of 4)",Sprague Dawley rats; dose 35 mM,Bone (4 of 4)
same,De novo bone formation,Sprague Dawley rats,De novo bone formation is demonstrated locally
Nc1ccn([C@@H]2O[C@H](CO)[C@@H](O)[C@@H]2O)c(=O)n1 [cytarabine],cell lifting from culture plates,C2C12 cells [1],caused cell lifting from culture plates
"CC(=O)NC[C@H]1CN(c2ccc(N3CCOCC3)c(F)c2)C(=O)O1 [Linezolid, N-[[(5S)-3-[3-fluoro-4-(4-morpholinyl)phenyl]-2-oxo-5-oxazolidinyl]methyl]-acetamide]",Fold increase in BMP-Potentiated ALP activity over BMP control,C2C12 cells [2],5
same,Fold increase in Noggin-Inhibition ALP Assay over BMP alone control,C2C12 cells [1],3
"COC1CC2CCC(C)C(O)(O2)C(=O)C(=O)N2CCCCC2C(=O)OC(C(C)CC2CCC(O)C(OC)C2)CC(=O)C(C)C=C(C)C(O)C(OC)C(=O)C(C)CC(C)C=CC=CC=C1C (stereo not shown) [Sirolimus, 9,10,12,13,14,21,22,23,24,25,26,27,32,33,34,34a-Hexadecahydro-9,27-dihydroxy-3-[2-[4-hydroxy-3-methoxycyclohexyl]-1-methylethyl]-10,21-dimethoxy-6,8,12,14,20,26-hexamethyl-23,27-epoxy-3H-pyrido[2,1-c][1,4]oxaazacyclohentriacontine-1,5,11,28,29(4H,6H,31H)-pentone]",Ave. (Xray score),Sprague Dawley rats; dose 10 mM,0.25
same,"Results (bone, animals with bone of 4)",Sprague Dawley rats; dose 10 mM,Bone (1 of 4)
same,Ave. (Xray score),Sprague Dawley rats; dose 15 mM,0.5
same,"Results (bone, animals with bone of 4)",Sprague Dawley rats; dose 15 mM,Bone (1 of 4)
same,Ave. (Xray score),Sprague Dawley rats; dose 20 mM,0.75
same,"Results (bone, animals with bone of 4)",Sprague Dawley rats; dose 20 mM,Bone (1 of 4)
same,Ave. (Xray score),Sprague Dawley rats; dose 25 mM,2.75
same,"Results (bone, animals with bone of 4)",Sprague Dawley rats; dose 25 mM,Bone (3 of 4)
same,Ave. (Xray score),Sprague Dawley rats; dose 30 mM,3.5
same,"Results (bone, animals with bone of 4)",Sprague Dawley rats; dose 30 mM,Bone (3 of 4)
same,Ave. (Xray score),Sprague Dawley rats; dose 35 mM,4.25
same,"Results (bone, animals with bone of 4)",Sprague Dawley rats; dose 35 mM,Bone (4 of 4)
same,De novo bone formation,Sprague Dawley rats,De novo bone formation is demonstrated locally
"C[C@H]1[C@H](OC(=O)CCC(=O)O)O[C@@H]2O[C@@]3(C)CC[C@H]4[C@H](C)CC[C@@H]1[C@@]24OO3 [Artesunate, 4-oxo-4-(((3R,5aS,6R,8aS,9R,10R,12R,12aR)-3,6,9-trimethyldecahydro-3H-3,12-epoxy[1,2]dioxepino[4,3-i]isochromen-10-yl)oxy)butanoic acid]",cell lifting from culture plates,C2C12 cells [1],caused cell lifting from culture plates
"Clc1ccccc1C(c1ccccc1)(c1ccccc1)n1ccnc1 [Clotrimazole, 1-[(2-chlorophenyl)diphenylmethyl]-1H-imidazole]",Fold increase in BMP-Potentiated ALP activity over BMP control,C2C12 cells [2],7
same,BMP-induced ALP activity,"C2C12 cells [2]; nanomolar concentrations, FIG. 5",dose dependent increase
same,Fold increase in Noggin-Inhibition ALP Assay over BMP alone control,C2C12 cells [1],4
"Nc1nc2ccc(Cl)cc2c2nc(-c3ccco3)nn12 [CGS 15943, 9-chloro-2-(furan-2-yl)[1,2,4]triazolo[1,5-c]quinazolin-5-amine]",cell lifting from culture plates,C2C12 cells [1],caused cell lifting from culture plates
CCOC(=O)C1=C(C)NC(C)=C(C(=O)OC)C1c1cccc(Cl)c1Cl (stereo not shown) [felodipine],cell lifting from culture plates,C2C12 cells [1],caused cell lifting from culture plates
"CC(=O)O[C@@]12CO[C@@H]1C[C@H](O)[C@@]1(C)C(=O)[C@H](O)C3=C(C)[C@@H](OC(=O)[C@H](O)[C@@H](NC(=O)OC(C)(C)C)c4ccccc4)C[C@](O)([C@@H](OC(=O)c4ccccc4)[C@H]21)C3(C)C [Docetaxel, (2aR,4S,4aS,6R,9S,11R,12S,12aR,12b S)-12b-acetoxy-9-(((2R,3S)-3-((tert-butoxycarbonyl)amino)-2-hydroxy-3-phenylpropanoyl)oxy)-4,6,11-trihydroxy-4a,8,13,13-tetramethyl-5-oxo-2a,3,4,4a,5,6,9,10,11,12,12a,12b-dodecahydro-1H-7,11-methanocyclodeca[3,4]benzo[1,2-b]oxet-12-yl benzoate]",cell lifting from culture plates,C2C12 cells [2],caused cell lifting from culture plates
Nc1ccn([C@@H]2O[C@H](CO)[C@@H](O)[C@@H]2O)c(=O)n1 [Cytarabine HCl],Fold-increase of BMP-induced ALP (over BMP alone control),C2C12 cells [2],2.0
C=C1/C(=C\C=C2/CCC[C@]3(C)[C@@H]([C@H](C)CCCC(C)(C)O)CC[C@@H]23)C[C@@H](O)C[C@@H]1O [calcitriol],cell lifting from culture plates,C2C12 cells [2],caused cell lifting from culture plates
"CCCSc1ccc2nc(NC(=O)OC)[nH]c2c1 [Albendazole, albendazole]",cell lifting from culture plates,C2C12 cells [2],caused cell lifting from culture plates
CCN(CC)CCOc1ccc(C(=C(Cl)c2ccccc2)c2ccccc2)cc1 [clomid],cell lifting from culture plates,C2C12 cells [2],caused cell lifting from culture plates
"CCCc1nc2c(C)cc(-c3nc4ccccc4n3C)cc2n1Cc1ccc(-c2ccccc2C(=O)O)cc1 [Telmisartan, 4′-((1,7′-dimethyl-2′-propyl-1H,3′H-[2,5′-bibenzo[d]imidazol]-3′-yl)methyl)[1,1′-biphenyl]-2-carboxylic acid]",Fold increase in BMP-Potentiated ALP activity over BMP control,C2C12 cells [2],3
same,Fold increase in Noggin-Inhibition ALP Assay over BMP alone control,C2C12 cells [1],3
"O=C(O)CCCc1ccc(N(CCCl)CCCl)cc1 [Chlorambucil, chlorambucil]",Fold increase in BMP-Potentiated ALP activity over BMP control,C2C12 cells [2],3
same,Fold increase in Noggin-Inhibition ALP Assay over BMP alone control,C2C12 cells [1],4
CC[C@@]1(O)C(=O)OCc2c1cc1n(c2=O)Cc2cc3c(CN(C)C)c(O)ccc3nc2-1 [Topotecan],Fold-increase of BMP-induced ALP (over BMP alone control),C2C12 cells [2],4.0
CCN(CC)CCNC(=O)c1c(C)[nH]c(/C=C2\C(=O)Nc3ccc(F)cc32)c1C [Sunitinib],Fold-increase of BMP-induced ALP (over BMP alone control),C2C12 cells [2],4.0
